Results on 30 compounds are retold here after US20070149508A1, “Six membered heteroaromatic inhibitors targeting resistant kinase mutations” (TargeGen, Inc., priority 2005, published 2007).

The target of assay [1] is T1, Abl (T315I) (Homo sapiens, UniProt P00519, T315I).
T1 construct: purchased Upstate
The experiment in a line: Abl (T315I) Kinase Assay (KinaseGlo luminescent detection of residual ATP). The format is biochemical. To be noted: Abl (T315I) IC50 (nM), Abl (T315I) (Upstate, 17 ng/well), Abltide 100 uM, ATP 500 nM, 60 minutes at 37° C. As for the experimental part:
The assay was performed similarly to the Abl kinase assay. Abl (T315I) (Upstate, 17 ng/well); Abltide substrate (100 uM) and ATP (500 nM) comprised the reaction mixture. Compound was similarly diluted, and the reaction plate was incubated for 60 minutes at 37° C.

Assay [2] concerns the target Abl kinase (Homo sapiens, UniProt P00519). Kind of assay: biochemical. To be noted: Abl IC50 (nM), Abl kinase (Invitrogen, 20 ng/well), Abltide 100 μM, ATP 500 nM, 37° C. for 60 minutes, top concentration 10 uM.
Experimental: Kinase activity was assessed using luminescent detection (KinaseGlo, Promega) of residual ATP concentration in reaction mixtures containing optimized levels of kinase, substrate, ATP, compound and appropriate buffers. Kinase, substrate and ATP concentrations were determined per the supplier's recommendations. Briefly, this involved running concentration curves to select for optimal signal.
The reaction mixture (50 ul/well) consisted of Abl kinase (Invitrogen, 20 ng/well); Abltide peptide substrate (Upstate, 100 μM) and ATP (500 nM). Each compound was evaluated at a top concentration of 10 uM with 1:3 dilution steps, 10 dilution steps total. Compound was diluted into DMSO and transferred to the reaction plate, resulting in a final DMSO concentration of 2%. This amount of DMSO was determined not to interfere with the enzyme. The reaction was conducted at 37° C. for 60 minutes. The degree of inhibition was assessed using IC50 determinations, which were obtained using GraphPad Prism4.

Structures can show the parent of a compound that is named as a salt.

Consider `Nc1nc2ccc(/C=C/c3cnc(Nc4ccc(S(=O)(=O)N5CCCNCC5)cc4)nc3)cc2s1` [(E)-6-(2-(2-(4-(1,4-diazepan-1-ylsulfonyl)phenylamino)pyrimidin-5-yl)vinyl)benzo[d]thiazol-2-amine], for which the IC50 in assay [1] is 22 nM; in assay [2], 39 nM.

As to `Nc1nc2ccc(/C=C/c3cnc(Nc4ccc(CCCN5CCCC5)cc4)nc3)cc2s1` [6-[(E)-2-(2-{[4-(3-pyrrolidin-1-ylpropyl)phenyl]amino}pyrimidin-5-yl)vinyl]-1,3-benzothiazol-2-amine], the figures for the IC50 in assay [1] and in assay [2] were 9450 nM and 5150 nM, respectively.

Turning to `CN(C)CCN(C1CCNCC1)S(=O)(=O)c1ccc(Nc2ncc(/C=C/c3cccc4[nH]ccc34)cn2)cc1` [N-[2-(dimethylamino)ethyl]-4-({5-[(E)-2-(1H-indol-4-yl)vinyl]pyrimidin-2-yl}amino)-N-piperidin-4-ylbenzenesulfonamide], the IC50 in assay [1] worked out at 182 nM; in assay [2], 25 nM.

`O=S(=O)(c1ccc(Nc2ncc(/C=C/c3ccc(O)c(O)c3)cn2)cc1)C1CCNCC1` [4-((E)-2-(2-(4-(piperidin-4-ylsulfonyl)phenylamino)pyrimidin-5-yl)vinyl)benzene-1,2-diol Hydrochloride]: the half-maximal inhibitory concentration (IC50) in assay [1] is 40 nM; in assay [2], 25 nM.

Regarding `O=S(=O)(c1ccc(Nc2ncc(/C=C/c3cccc4[nH]ccc34)cn2)cc1)N1CCCNCC1` [[4-([1,4]Diazepane-1-sulfonyl)-phenyl]-{5-[2-(1H-indol-4-yl)-vinyl]-pyrimidin-2-yl}-amine], the IC50 in assay [1] was 195 nM; in assay [2], 13 nM.

On to `O=C(c1ccc(Nc2ncc(/C=C/c3cccc4[nH]ncc34)cn2)cc1)N1CCNCC1` [(4-(5-((E)-2-(1H-indazol-4-yl)vinyl)pyrimidin-2-ylamino)phenyl)(piperazin-1-yl)methanone hydrochloride], for which the results for the IC50 in assay [1] and in assay [2] were 231 nM and 20 nM, respectively.

As to `O=S(=O)(c1ccc(Nc2ncc(/C=C/c3cccc(O)c3)cn2)cc1NCCO)N1CCNCC1` [3-{(E)-2-[2-({3-[(2-hydroxyethyl)amino]-4-(piperazin-1-ylsulfonyl)phenyl}amino)pyrimidin-5-yl]vinyl}phenol trifluoroacetic acid salt], the IC50 is 78 nM in assay [1] and 7.3 nM in assay [2].

On to `O=C(Nc1ccc(/C=C/c2cnc(Nc3ccc(S(=O)(=O)C4CCNCC4)cc3)nc2)cc1)c1cccc(C(F)(F)F)c1` [N-(4-((E)-2-(2-(4-(piperidin-4-ylsulfonyl)phenylamino)pyrimidin-5-yl)vinyl)phenyl)-3-(trifluoromethyl)benzamide Hydrochloride], for which the results for the IC50 in assay [1] and in assay [2] were 1010 nM and 506 nM, respectively.

With `O=S(=O)(NC1CCNCC1)c1ccc(Nc2ncc(/C=C/c3cccc4[nH]ccc34)cn2)cc1` [4-{5-[2-(1H-Indol-4-yl)-vinyl]-pyrimidin-2-ylamino}-N-piperidin-4-yl-benzenesulfonamide], the IC50 in assay [1] came out at 282 nM; in assay [2], 12 nM.

Take `O=S(=O)(c1ccc(Nc2ncc(/C=C/c3cccc4[nH]ncc34)cn2)cc1)C1CCNCC1` [5-((E)-2-(1H-indazol-4-ylsulfonyl)phenyl)pyrimidin-yl)vinyl)-N-(4-(piperidin-4-2-amine trifluoroacetic acid salt]: the IC50 was determined as 29 nM in assay [1] and 1.5 nM in assay [2].

In the case of `Nc1nc2ccc(/C=C/c3cnc(Nc4ccc(S(=O)(=O)C5CCNCC5)cc4)nc3)cc2[nH]1` [6-[(E)-2-(2-{[4-(piperidin-4-ylsulfonyl)phenyl]amino}pyrimidin-5-yl)vinyl]-1H-benzimidazol-2-amine], the values for the IC50 in assay [1] and in assay [2] were 169 nM and 192 nM, respectively.

Take `O=S(=O)(c1ccc(Nc2ncc(/C=C/c3ccccc3)cn2)cc1NCCO)N1CCNCC1` [2-{[5-({5-[(E)-2-phenylvinyl]pyrimidin-2-yl}amino)-2-(piperazin-1-ylsulfonyl)phenyl]amino}ethanol trifluoroacetic acid salt]: the IC50 in assay [1] was 2500 nM; in assay [2] it was 131 nM.

Turning to `O=S(=O)(c1ccc(Nc2ncc(/C=C/c3cccc4[nH]ncc34)cn2)cc1)N1CCNCC1` [{5-[2-(1H-Indazol-4-yl)-vinyl]-pyrimidin-2-yl}-[4-(piperazine-1-sulfonyl)-phenyl]-amine], the values for the IC50 in assay [1] and in assay [2] were 289 nM and 44 nM, respectively.

For `O=S(=O)(c1ccc(Nc2ncc(/C=C/c3ccc(Cl)c4[nH]ccc34)cn2)cc1)C1CCNCC1` [5-((E)-2-(7-chloro-1H-indol-4-yl)vinyl)-N-(4-(piperidin-ylsulfonyl)phenyl)pyrimidin-2-amine Hydrochloride], the values for the IC50 in assay [1] and in assay [2] were 156 nM and 15 nM, respectively.

As for `O=S(=O)(c1ccc(Nc2ccc(/C=C/c3cccc(O)c3)cn2)cc1)C1CCNCC1` [3-((E)-2-(6-(4-(piperidin-4-ylsulfonyl)phenylamino)pyridin-3-yl)vinyl)phenol hydrochloride], the IC50 in assay [1] amounted to 192 nM; in assay [2] it was 32 nM.

Take `O=S(=O)(c1ccc(Nc2ncc(/C=C/c3cccc(O)c3)cn2)cc1)C1CCNCC1` [3-(2-{2-[4-(Piperidine-4-sulfonyl)-phenylamino]-pyrimidin-5-yl}-vinyl)-phenol]: the IC50 is 22 nM in assay [1] and 1.7 nM in assay [2].

In the case of `O=S(=O)(NCCN1CCCC1)c1ccc(Nc2ncc(/C=C/c3cccc(O)c3)cn2)cc1` [4-{5-[2-(3-Hydroxy-phenyl)-vinyl]-pyrimidin-2-ylamino}-N-(2-pyrrolidin-1-yl-ethyl)-benzenesulfonamide], the IC50 in assay [1] turned out to be 141 nM; in assay [2] it was 7.1 nM.

For the compound `NS(=O)(=O)c1ccc(/C=C/c2cnc(Nc3ccc(S(=O)(=O)N4CCCNCC4)cc3)nc2)cc1` [4-(2-{2-[4-([1,4]Diazepane-1-sulfonyl)-phenylamino]-pyrimidin-5-yl}-vinyl)-benzenesulfonamide], the IC50 was 298 nM in assay [1] and 977 nM in assay [2].

For `O=S(=O)(c1ccc(Nc2ncc(/C=C/c3cc(C(F)(F)F)cc4[nH]nnc34)cn2)cc1)N1CCCNCC1` [[4-([1,4]Diazepane-1-sulfonyl)-phenyl]-{5-[2-(6-trifluoromethyl-1H-benzotriazol-4-yl)-vinyl]-pyrimidin-2-yl}-amine], the IC50 in assay [1] worked out at 67 nM; in assay [2], 59 nM.

As to `O=S(=O)(c1ccc(Nc2ncc(/C=C/c3cccc(O)c3)cn2)cc1OC(F)(F)F)N1CCNCC1` [3-(2-{2-[4-(Piperazine-1-sulfonyl)-3-trifluoromethoxy-phenylamino]-pyrimidin-5-yl}-vinyl)-phenol], the values for the IC50 in assay [1] and in assay [2] were 752 nM and 97 nM, respectively.

`Nc1nc2ccc(/C=C/c3cnc(Nc4ccc(S(=O)(=O)N5CCNCC5)cc4)nc3)cc2s1` [(E)-6-(2-(2-(4-(piperazin-1-ylsulfonyl)phenylamino)pyrimidin-5-yl)vinyl)benzo[d]thiazol-2-amine]: the values for the IC50 in assay [1] and in assay [2] were 38 nM and 40 nM, respectively.

As for `Cc1cc(Nc2ncc(/C=C/c3ccc4nc(N)sc4c3)cn2)ccc1S(=O)(=O)N1CCCNCC1` [(E)-6-(2-(2-(4-(1,4-diazepan-1-ylsulfonyl)-3-methylphenylamino)pyrimidin-5-yl)vinyl)benzo[d]thiazol-2-amine], the IC50 in assay [1] is 593 nM; in assay [2] it was 1060 nM.

For `Nc1nc2ccc(/C=C/c3cnc(Nc4ccc(SCCN5CCOCC5)cc4)nc3)cc2s1` [6-(2-{2-[4-(2-Morpholin-4-yl-ethylsulfanyl)-phenylamino]-pyrimidin-5-yl}-vinyl)-benzothiazol-2-ylamine], the IC50 in assay [1] came to 1200 nM; in assay [2] it was 630 nM.

Regarding `O=S(=O)(c1ccc(Nc2ncc(/C=C/c3ccc(-c4c[nH]cn4)cc3)cn2)cc1)N1CCNCC1` [(5-{2-[4-(1H-Imidazol-4-yl)-phenyl]-vinyl}-pyrimidin-2-yl)-[4-(piperazine-1-sulfonyl)-phenyl]-amine], the IC50 in assay [1] came to 5040 nM; in assay [2] it was 2860 nM.

For the compound `Nc1nc2ccc(/C=C/c3cnc(Nc4ccc(OC5CCNCC5)cc4)nc3)cc2s1` [6-[(E)-2-(2-{[4-(piperidin-4-yloxy)phenyl]amino}pyrimidin-5-yl)vinyl]-1,3-benzothiazol-2-amine], the IC50 came to 428 nM in assay [1] and 259 nM in assay [2].

As to `O=S(=O)(c1ccc(Nc2ncc(/C=C/c3cc(C(F)(F)F)cc4[nH]nnc34)cn2)cc1)N1CCNCC1` [[4-(Piperazine-1-sulfonyl)-phenyl]-{5-[2-(6-trifluoromethyl-1H-benzotriazol-4-yl)-vinyl]-pyrimidin-2-yl}-amine], the values for the IC50 in assay [1] and in assay [2] were 89 nM and 269 nM, respectively.

As to `Oc1ccc(Cl)c(/C=C/c2cnc(Nc3ccc(OCCN4CCCC4)cc3)nc2)c1` [3-((E)-2-(2-(4-(2-(pyrrolidin-1-yl)ethoxy)phenylamino)pyrimidin-5-yl)vinyl)-4-chlorophenol hydrochloride], the IC50 in assay [1] amounted to 972 nM; in assay [2] it was 13 nM.

Take `N#Cc1ccc(Nc2ncc(/C=C/c3cccc4[nH]ccc34)cn2)cc1` [4-(5-((E)-2-(1H-indol-4-yl)vinyl)pyrimidin-2-ylamino)benzonitrile]: the values for the IC50 in assay [1] and in assay [2] were > 10000 nM and 174 nM, respectively.

Consider `Nc1cn2cc(/C=C/c3cnc(Nc4ccc(S(=O)(=O)C5CCNCC5)cc4)nc3)ccc2n1` [6-[(E)-2-(2-{[4-(piperidin-4-ylsulfonyl)phenyl]amino}pyrimidin-5-yl)vinyl]imidazolo[1,2-a]pyridin-2-amine trifluoroacetic acid salt], for which the values for the IC50 in assay [1] and in assay [2] were 136 nM and 469 nM, respectively.

As for `O=S(=O)(CCCN1CCCC1)c1ccc(Nc2ncc(/C=C/c3cccc4[nH]ccc34)cn2)cc1` [5-[(E)-2-(1H-indol-4-pyrrolidin-1-ylpropyl)sulfonyl]phenyl}pyrimidin-2-amine], the results for the IC50 in assay [1] and in assay [2] were 386 nM and 13 nM, respectively.
